The results in this text go back to patent EP4653001A1, “TREATMENT, DIAGNOSIS AND/OR PROGNOSIS OF MITOCHONDRIAL DISEASES” (Universidad Autónoma de Madrid, priority 2024, dated 2025).

Data set [1] concerns primary neurons. The experiment in a line: Neuronal death. Format: cell-based, mouse. Conditions: CI inhibition.
The next data set relates to cortical neurons. The experiment in a line: ATP measurement in live neurons (FRET ATP biosensor). Format: cell-based, rats. Conditions: soma or axons, 100 nM, 24 h. The procedure: ATP measurements was performed in primary co-cultures of cortical neurons and astrocytes from P1-2 wild-type rats of the Sprague-Dawley strain Crl:CD(SD), which are bred by Charles River Laboratories following the international genetic standard protocol (IGS). All experiments were carried out in strict accordance with the guidelines of the European Directive 2010/63/EU and the French Decree n° 2013- 118 concerning the protection of animals used for scientific purposes. Neurons were plate on poly- ornithine (Sigma-Aldrich, P3655) coated coverslips and maintained in culture media composed by MEM (Thermo Fisher Scientific, 51200-046), 20 mM Glucose (Sigma-Aldrich, G8270), 0.1 mg/mL transferrin (Sigma-Aldrich, 616420), 1% Glutamax (Thermo Fisher Scientific, 35050-038), 24 µg/mL insulin (Sigma-Aldrich, I6634), 5% FBS (Thermo Fisher Scientific, 10082-147), 2% N-21 (Bio-techne, AR008) and 4µM cytosine β-d-arabinofuranoside (Sigma-Aldrich, C6645). Cultures were incubated at 37°C in 95% air / 5% CO 2 humidified incubator.
Neurons were transfected at DIV 8 with ATeam1.03-nD/nA/pcDNA3 (gift from Takeharu Nagai (Addgene plasmid # 51958; http://n2t.net/addgene:51958; RRID:Addgene_51958)) and imaged at DIV 19. […] Fluorescence emission from ATeam was imaged using a FS 78 HE Dual camera; the exposure times were 250 ms for CFP and YFP images. […]

Data set [2] relates to primary neurons. In words: Patch-clamp capacitance analysis. Conditions: CI inhibition. It is filed as cell-based, mouse. The procedure:
A glass coverslip containing mixed cortical cultures of 10-14 DIV was placed in an immersion chamber constantly perfused with aCSF (119 mM NaCl, 2.5 mM KCl, 2.5 mM CaCl2, 1.2 mM MgCl2, 26 mM NaHCO3, 1 mM NaH2PO4, 11 mM glucose pH adjusted to 7.4 and osmolarity to 290 ±5 mOsm) gassed with carbogen (5-10% CO2, 90-95% O2) and its temperature closely monitored at 29°C. Cells were recorded under current-clamp configuration with patch recording glass electrodes (4-6 MΩ) composed of silver/silver chloride electrodes inserted in glass pipettes filled with internal solution (115 mM K gluconate, 20 mM KCl, 10 mM HEPES, 2 mM MgCl2, 4 mM Na2-ATP, 0.3 mM Na3-GTP pH adjusted to 7.2-7.3 and osmolarity to 290 ±5 mOsm). Resting membrane potential was directly acquired from these recordings. Voltage responses to current injections of -100 pA were used to calculate whole-cell input resistance and membrane capacitance. This last parameter is calculated from the exponential time constant (τ) of the voltage change, as τ=R*C (R: input resistance, C: capacitance).
Data acquisition was carried out with MultiClamp 700 A/B amplifiers and pCLAMP 9/10 software (Molecular Devices). Data analysis was performed using Clampfit software (Molecular Devices).
In general terms: The patch-clamp technique gives a direct electrical read-out from membranes.

The test system of the next data set is 143B cells. The experiment in a line: PPP activity measurement in 143B cells. It is filed as cell-based. Conditions: 24 h. How it is done: The determination of pentose-phosphate pathway (PPP) activity was conducted by assessing the difference between 14CO2 production from 1-14C-glucose, which decarboxylates through the 6-phosphogluconate dehydrogenase-catalyzed reaction, and that of 6-^14C-glucose, which decarboxylates through the tricarboxylic acid cycle.
Increased lactate secretion is considered a good indicator of enhanced glycolytic rates, which is a common feature of ETC-inhibited cells as they switch from OXPHOS to glycolysis to maintain ATP levels. […] We culture 143B cells in the presence of Piericidin for 24 h and PPP activity and lactate release, as a proxy of glycolysis, were measured. As expected, lactate detection in the media was higher in CI-inhibited cells. […] Next, we wonder if in this context, glucose can be overused by glycolysis and therefore diverted away from the PPP. Diseases associated with impaired mitochondrial function negatively impact high energy demanding tissues such as the brain. As such, neurons that are highly sensitive to ETC inhibition also rely strongly on glucose metabolism. Thus, we used mouse cortical neurons to determine the rates of glycolysis and PPP as glucose levels become limiting. Control and Piericidin treated neurons where cultured in media containing supraphysiological (25 mM), physiological (5 mM) or subphysiological concentrations of glucose (2,5 mM). […]

For a further data set, the system named is mouse cortical neurons. The experiment in a line: NADPH/NADP+ levels in neurons (NADP/NADPH-Glo). It is filed as cell-based. The note with it: CI-inhibited neurons. The procedure: Primary cultures of C57BL/6 mouse cortical neurons were prepared from embryos between embryonic days 16.5 and 17.5 and seeded onto pre-treated plates coated with Poly-L-lysine hydrobromide (500 µg/ml). We used Neurobasal medium without D-glucose and sodium pyruvate (ThermoFisher) to modulate D-glucose levels, depending on the experiment (2.5 mM, 5 mM, or 25 mM).
In standard experiments, we utilized Neurobasal medium with 25 mM D-glucose, 1 mM sodium pyruvate (ThermoFisher), B27 plus supplement (GIBCO), GlutaMax I 100X (GIBCO), and 1% penicillin/streptomycin (P/S). Starting from day 6 in vitro (DIV6), half of the medium was replaced every 3-4 days, omitting GlutaMax I.
The NADP/NADP-Glo™ Assay (Promega) was employed to assess the NADP/NADPH ratio in cultured cells, following the manufacturer's instructions (Technical Bulletin Number TM400). This bioluminescent assay can detect both total oxidized and reduced nicotinamide adenine dinucleotide phosphates (NADP+ and NADPH) and determine their ratio.
Cells were cultured in 24-well plates (Falcon®) at varying concentrations depending on the cell type and the specific experiment. After removing the media, we added 100 µl of PBS 1X per well and lysed the cells by introducing 100 µl of a base solution with 1% DTAB (1:1 ratio). […] Luminescence was measured using the CLARIOstar Plus plate reader from BMG LABTECH.

As to `CC=C(C)C(O)C(C)C=C(C)C=CCC(C)=CCc1nc(OC)c(OC)c(O)c1C` (stereo not drawn) [Piericidin, Piericidin A], the neuronal death result with primary neurons [1] is on record as “did not correspond to an increase”. The “ATP (genetically encoded biosensor)” value in the data set with cortical neurons is given as “did not altered”. For the same compound, in the data set with primary neurons [2], the capacitance result is “lower”. Further, the PPP activity entry with 143B cells is “significant increase”. Further, the NADPH levels entry in the data set with mouse cortical neurons (100 nM, 24 h) is “marked drop”. In the data set with mouse cortical neurons (low glucose (2,5 mM)), the “NADPH/NADP+ levels” value is listed as “rapid decline”.
